Assay results taken from patent US20260274835A1, “A3 ADENOSINE RECEPTOR POSITIVE ALLOSTERIC MODULATORS” (The Medical College of Wisconsin, Inc., priority 2022, published 2026).

Target: T1, WT hA3ARs (Homo sapiens, UniProt P0DMS8)
T1 construct: The full-length mouse (as previously described^25), human (purchased from the cDNA Resource Center), and human/mouse chimeric
T1 sequence (P0DMS8 1-318): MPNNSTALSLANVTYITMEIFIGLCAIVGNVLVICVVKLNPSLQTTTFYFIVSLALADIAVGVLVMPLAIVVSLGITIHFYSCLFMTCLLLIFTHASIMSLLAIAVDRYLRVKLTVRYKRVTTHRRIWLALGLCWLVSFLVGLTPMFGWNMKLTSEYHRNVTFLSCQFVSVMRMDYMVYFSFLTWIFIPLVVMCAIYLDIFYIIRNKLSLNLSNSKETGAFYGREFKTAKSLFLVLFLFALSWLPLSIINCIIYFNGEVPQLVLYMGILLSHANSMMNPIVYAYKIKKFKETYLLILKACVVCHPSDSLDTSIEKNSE
Test: [35S]GTPγS binding assay, Cl-IB-MECA concentration-response with modulator, HEK293 cell membranes
Assay type: biochemical
Conditions: for Emax (%): PAM derivative 1.0 μM, [35S]GTPγS binding induced by Cl-IB-MECA, WT hA3ARs, mean ± SEM, n = 3; for Emax (%) / IC50 ratio: Table 3; for IC50 ratio: ratio of IC50 values for Cl-IB-MECA, DMSO control compared to 100 nM PAM derivative
Description: Creation of stable HEK293 cell lines expressing wild-type and human/mouse chimeric A3ARs: The full-length mouse (as previously described^25), human (purchased from the cDNA Resource Center), and human/mouse chimeric (custom synthesized by TOP Gene Technologies, St. Laurent, Quebec) A3AR cDNAs were subcloned into pcDNA3.1. The constructs were transfected into HEK293 cells (American Type Culture Collection, Manassas, VA) using Lipofectamine 2000 reagent (Invitrogen, Waltham, MA) and selected with 2 mg/ml of G418 in cell culture media (DMEM with 10% fetal bovine serum, 100 units/ml penicillin, and 100 μg/ml streptomycin). Cell lines derived from individual clones were maintained in cell culture media containing 0.6 mg/ml G418.
Membrane preparations: Transfected HEK293 cells were washed with PBS followed by homogenization in Buffer A containing 10 mM Na+-HEPES, 10 mM EDTA, 1 mM benzamidine (pH 7.4) and centrifugation at 27,000×g for 30 min at 4° C. Cell pellets were subsequently re-homogenized in HE buffer containing 10 mM Na+-HEPES, 1 mM EDTA, 1 mM benzamidine (pH 7.4) and re-centrifuged. The supernatant was discarded, and cell pellets were resuspended in HE buffer containing 10% sucrose and stored at −20° C.
[^35S]GTPγS binding assays: Cell membranes (5 μg protein) isolated from transfected HEK293 cells were pre-treated with modulators for one hour in 100 μl GTPγS binding buffer (50 mM Tris HCL [pH 7.4], 1 mM EGTA, 10 mM MgCl2, 100 mM NaCl, 0.004% CHAPS, and 0.5% BSA) in a 96-well large-volume polypropylene assay plate. In all assays, ZM-241385 (300 nM) and PSB-603 (300 nM) were included to block A2BARs expressed endogenously in HEK293 cells. Adenosine deaminase (ADA) (1 μl/ml) was also included to degrade any endogenous adenosine that might be produced during the assay, except when adenosine was used as the orthosteric agonist. The reactions were initiated by the addition of ~0.2 nM [^35S]GTPγS and agonist in 100 μl GTPγS binding buffer and allowed to incubate for two hours at room temperature. At the end of the two-hour incubation period, the membranes were harvested by rapid filtration through Whatman GF/B filters that had been pre-soaked for two hours in GTPγS binding buffer containing 0.02% CHAPS using a 96-well cell harvester (Brandel, Gaithersburg, MD). Radioactivity trapped in the filters was measured by liquid scintillation counting. Non-specific binding of [^35S]GTPγS was determined in the presence of 10 μM unlabeled GTPγS.
Data Analysis: EMax and EC50 values were calculated from data obtained from agonist concentration-response curves according to: E=([…])/(EC50+x), in which x is the agonist concentration. All values were statistically compared using a two-tailed unpaired Student's t-test or two-tailed paired Student's t-test, as indicated. For dissociation binding assays, fit to a one-phase exponential decay model: Y=(Y0−NS)^(−kxt), in which Y0 is specific binding at time 0, k is the dissociation rate constant, and t is the elapsed time. All values are presented as the mean±SEM. A p value <0.05 was considered statistically significant.
The two series of modulators were evaluated in a [^35S]GTPγS binding assay using isolated HEK293 cell membranes expressing the h A3AR, which detects receptor-induced G protein activation. For these studies, concentration-response curves with the orthosteric agonist Cl-IB-MECA were assessed in the presence of vehicle or 0.1, 1, or 10 μM modulator compound.

[1] = increasing concentrations of modulator (0.1, 1, 10 μM)

| Emax (%) | IC50 ratio | Compound | effect on EC50 (potency) of agonist Cl-IB-MECA, in words [1] | effect on Emax (efficacy) of agonist Cl-IB-MECA, in words [1] |
| --- | --- | --- | --- | --- |
| 127.0 ± 6.0 | 0.491 | CN(c1ccc(Cl)c(Cl)c1)c1nc2ccccc2c2[nH]c(C3CCCCC3)nc12 [45 (RK006-100-1, BS1007)] |  |  |
| 137.6 ± 7.3 | 1.11 | Clc1ccc(Sc2nc3ccccc3c3[nH]c(C4CCCCC4)nc23)cc1Cl [47 (RK007-2-1, BS1005)] |  |  |
| 192.6 ± 11.2 | 0.505 | Clc1ccc(Nc2nc3ccccc3c3sc(C4CCCCC4)nc23)cc1Cl [42 (RK005-79-1, BS1001)] |  |  |
| 177.8 ± 11.5 | 1.12 | Cn1c(C2CCCCC2)nc2c(Nc3ccc(Cl)c(Cl)c3)nc3ccccc3c21 [35 (MRS8206)] |  |  |
|  |  | O=C(Nc1cc(Nc2ccc(Cl)c(Cl)c2)nc2ccccc12)C1CCCCC1 [LUF6096, reference compound] | without reducing the potency of CI-IB-MECA | produced the greatest increase in efficacy |
| 119.3 ± 6.2 | 0.764 | OCCn1c(C2CCCCC2)nc2c(Nc3ccc(Cl)c(Cl)c3)nc3ccccc3c21 [36 (MRS8236)] |  |  |
| 149.9 ± 8.8 | 0.406 | Clc1ccc(Nc2nc3ccccc3c3oc(C4CCCCC4)nc23)cc1Cl [41 (RK005-84-1, BS1002)] |  |  |
| 150.6 ± 5.8 | 0.738 | Clc1ccc(Oc2nc3ccccc3c3[nH]c(C4CCCCC4)nc23)cc1Cl [46 (RK007-4-1, BS1006)] |  |  |
